Source: US4605744A, “Imidazole derivatives” (Hoffmann-La Roche Inc., priority 1985, dated 1986)
≈ marks a conversion by molar mass, not a printed value. Counter-ions that a name gives are not always drawn. Like-named read-outs stand apart in the source and are kept apart here.

Experiments:
E. coli 257 [1] = assay: In vitro antibacterial activity (MIC, Mueller-Hinton broth); format: cell-based
Protocol: Drug dilutions are prepared in Mueller-Hinton broth ranging from 128 to 0.008 μg/ml. The diluted agents are dispensed in 100 μl amounts into the wells of a 96-well tray and used immediately or frozen at -10° to -70° C. until needed. Using an automated inoculator, 1.5 μl of a 10^-2 dilution of an overnight culture is added to each well of the tray. The tops of the trays are then sealed using transparent tape and incubated overnight at 37° C. The trays are examined with the aid of a viewer. The lowest concentration at which no growth is observed is considered to be the minimum inhibitory concentration (MIC).

E. aerogenes 83 = assay: In vitro antibacterial activity (MIC); format: cell-based
Outline: (§1)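 Broth microdilution in Mueller-Hinton broth, drug range 128 to 0.008 μg/ml. Each well received 1.5 μl of a 10^-2 dilution of an overnight culture; sealed trays were incubated overnight at 37° C. MIC = lowest concentration with no visible growth.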

E. aerogenes 8 = assay: In vitro antibacterial activity (MIC); format: cell-based
Outline: as §1

E. cloacae 24 = assay: In vitro antibacterial activity (MIC); format: cell-based
Outline: as §1

P. aeruginosa 503-820 = assay: In vitro antibacterial activity (MIC); format: cell-based
Outline: as §1

P. aeruginosa 8710 [2] = assay: In vitro antibacterial activity (MIC); format: cell-based
Outline: as §1

P. aeruginosa 8780 = assay: In vitro antibacterial activity (MIC); format: cell-based; details: Pseudomonas aeruginosa
Outline: as §1

P. mirabilis 190 = assay: In vitro antibacterial activity (MIC); format: cell-based
Outline: as §1

P. mirabilis 90 = assay: In vitro antibacterial activity (MIC); format: cell-based
Outline: as §1

S. aureus 1059B = assay: In vitro antibacterial activity (MIC); format: cell-based; details: Staphylococcus aureus
Outline: as §1

S. marcescens S1 = assay: In vitro antibacterial activity (MIC); format: cell-based; details: Serratia marcescens
Outline: as §1

S. marcescens S4 = assay: In vitro antibacterial activity (MIC); format: cell-based
Outline: as §1

S. pyogenes 4 [3] = assay: In vitro antibacterial activity (MIC); format: cell-based
Outline: as §1

E. coli 257 [4] = assay: In vivo antibacterial activity (PD50); details: Escherichia coli, 257, sc
S. marcescens SM = assay: In vivo antibacterial activity (PD50); details: sc; for ED50: Serratia marcescens, Table 9
S. aureus Smith = assay: In vivo antibacterial activity (PD50); details: Staphylococcus aureus, sc
S. pyogenes 4 [5] = assay: In vivo antibacterial activity (PD50); details: Streptococcus pyogenes, 4, sc, sc, read-out: PD50
S. pneumoniae 6302 = assay: In vivo antibacterial activity (PD50); details: Streptococcus pneumoniae, 6302, sc
S. faecalis C1 = assay: In vivo antibacterial activity (PD50); details: sc; for ED50: Enterococcus faecalis, C1, Table 9
P. aeruginosa 6720 = assay: In vivo antibacterial activity (PD50); details: Pseudomonas aeruginosa, 6720, sc, 2 treatments
P. aeruginosa 8710 [6] = assay: In vivo antibacterial activity (PD50); details: Pseudomonas aeruginosa, 8710, sc, 2 treatments
P. aeruginosa 6799 = assay: In vivo antibacterial activity (PD50); details: Pseudomonas aeruginosa, 6799, sc, sc, 2 treatments, read-out: PD50
K. pneumoniae HE7 = assay: In vivo antibacterial activity (PD50); details: Klebsiella pneumoniae, HE7, sc, 2 treatments
E. coli 387-1 = assay: In vitro antibacterial activity (MIC); format: cell-based; details: Escherichia coli, 3871, E. coli 387-1; read-out: MIC
Outline: as §1

E. coli 4 = assay: In vitro antibacterial activity (MIC); format: cell-based; details: Escherichia coli, 4, E. coli 4; read-out: MIC
Outline: as §1

E. coli 503-455 = assay: In vitro antibacterial activity (MIC); format: cell-based; details: Escherichia coli, 503455
Outline: as §1

K. pneumoniae 4964 = assay: In vitro antibacterial activity (MIC); format: cell-based; details: Klebsiella pneumoniae, 4964
Outline: as §1

K. pneumoniae A = assay: In vitro antibacterial activity (MIC); format: cell-based; details: Klebsiella pneumoniae, K. pneumoniae A; read-out: MIC
Outline: as §1

P. mirabilis 503-1136 = assay: In vitro antibacterial activity (MIC); format: cell-based; details: Proteus mirabilis, 5031136, P. mirabilis 503-1136; read-out: MIC
Outline: as §1

P. vulgaris 101 = assay: In vitro antibacterial activity (MIC); format: cell-based; details: Proteus vulgaris, 101, P. vulgaris 101; read-out: MIC
Outline: as §1

S. marcescens S714 = assay: In vitro antibacterial activity (MIC); format: cell-based; details: Serratia marcescens, S714, S. marcescens S714; read-out: MIC
Outline: as §1

S. schottmuelleri = assay: In vitro antibacterial activity (MIC); format: cell-based; details: read-out: MIC
Outline: as §1

K. pneumoniae 503-990A = assay: In vivo activity alone and in combination (PD50, FIC); details: Klebsiella pneumoniae, 503990A, sc, alone
Protocol: (§2) In Tables 9-14, the results of the in vivo activity against certain microorganisms of compounds I, M and N as given. […] The results in these Tables and the PD50 's were determined by the procedure set forth on page 160 in Beskid et al., Antimicrobial Agents and Chemotherapy, Vol. 20, No. 2 pp. 159-167 (Aug. 1981) for "in vivo studies".
(§3) In the Tables, the fractional inhibitory concentration index (FIC) for synergistic combination of a compound of this invention (X) with known antibiotic compound (Y) is determined by the following formula:
(§4) FIC=(PD50 (X combination)/PD50 (X alone)+(PD50 (Y
(§5) combination)/PD50 (Y alone)
(§6) An FIC of ≤0.60 is indicative of synergy. The synergy rating in the Tables is as follows:
(§7) In the combination, the parts are parts by weight, i.e. 10 to 1 is 10 parts by weight to 1 part by weight.

K. pneumoniae R2296 = assay: as above; details: Klebsiella pneumoniae, sc, alone
Protocol: as §2, §3, §4, §5, §6, §7

[7] = Klebsiella aerogenes, 83, E. aerogenes 83, read-out: MIC
[8] = Klebsiella aerogenes, E. aerogenes 8, read-out: MIC
[9] = Pseudomonas aeruginosa, 503820, P. aeruginosa 503-820, read-out: MIC
[10] = Proteus mirabilis, 90, P. mirabilis 90, read-out: MIC
[11] = Serratia marcescens, S4, S. marcescens S4, read-out: MIC
[12] = Streptococcus pyogenes, 4, S. pyogenes 4, read-out: MIC
[13] = challenge 100 LD50s, 2 treatments, Table 10

CC1(C)S[C@@H]2[C@H](/N=C/N3CCCCCC3)C(=O)N2[C@H]1C(=O)O [Amdinocillin, amdinocillin, reference compound]
MIC (E. coli 257 [1]; Escherichia coli, 257): 0.125 µg/mL (≈ 0.384 µM)
MIC (E. aerogenes 83; E. aerogenes 83): 4 µg/mL (≈ 12.3 µM)
MIC (E. aerogenes 83; [7]): 8 µg/mL (≈ 24.6 µM)
MIC (E. aerogenes 8; Klebsiella aerogenes, 8, E. aerogenes 8): 128 µg/mL (≈ 393 µM)
MIC (E. aerogenes 8; [8]): 0.25 µg/mL (≈ 0.768 µM)
MIC (E. cloacae 24; Enterobacter cloacae, 24): 0.125 µg/mL (≈ 0.384 µM)
MIC (P. aeruginosa 503-820; P. aeruginosa 503-820): 128 µg/mL (≈ 393 µM)
MIC (P. aeruginosa 503-820; Pseudomonas aeruginosa, 503820, P. aeruginosa 503-820): > 128 µg/mL
MIC (P. aeruginosa 503-820; [9]): 64 µg/mL (≈ 197 µM)
MIC (P. aeruginosa 8710 [2]; P. aeruginosa 8710): 128 µg/mL (≈ 393 µM)
MIC (P. aeruginosa 8710 [2]; Pseudomonas aeruginosa, 8710, P. aeruginosa 8710): > 128 µg/mL
MIC (P. aeruginosa 8780; 8780): > 128 µg/mL
MIC (P. mirabilis 190; Proteus mirabilis, 190): 0.125 µg/mL (≈ 0.384 µM)
MIC (P. mirabilis 90; P. mirabilis 90): 0.5 µg/mL (≈ 1.54 µM)
MIC (P. mirabilis 90; [10]): 0.25 µg/mL (≈ 0.768 µM)
MIC (S. aureus 1059B; 1059B): 128 µg/mL (≈ 393 µM)
MIC (S. aureus 1059B; read-out: MIC): 64 µg/mL (≈ 197 µM)
MIC (S. marcescens S1; S1): 0.125 µg/mL (≈ 0.384 µM)
MIC (S. marcescens S4; S. marcescens S4): 0.5 µg/mL (≈ 1.54 µM)
MIC (S. marcescens S4; [11]): 1 µg/mL (≈ 3.07 µM)
MIC (S. pyogenes 4 [3]; S. pyogenes 4): 2 µg/mL (≈ 6.15 µM)
MIC (S. pyogenes 4 [3]; [12]): 1 µg/mL (≈ 3.07 µM)
ED50 (E. coli 257 [4]; Table 9): < 0.025 mg/kg
ED50 (E. coli 257 [4]; challenge >10^4 LD50s, 1 treatment, Table 10): < 1 mg/kg
ED50 (E. coli 257 [4]; challenge >10^4 LD50s, 1 treatment, Table 11): < 2 mg/kg
ED50 (S. marcescens SM): > 250 mg/kg
PD50 (S. marcescens SM; challenge 489 LD50s, 2 treatments, Table 11): > 250 mg/kg
ED50 (S. aureus Smith; Table 9): 69 mg/kg
ED50 (S. aureus Smith; challenge 48 LD50s, 2 treatments, Table 10): 22 mg/kg
ED50 (S. aureus Smith; challenge 70 LD50s, 2 treatments, Table 11): 13 mg/kg
ED50 (S. aureus Smith; [13]): 12 mg/kg
ED50 (S. pyogenes 4 [5]; Table 9): 60 mg/kg
ED50 (S. pyogenes 4 [5]; challenge 3.3 LD50s, 2 treatments, Table 11): 11 mg/kg
ED50 (S. pyogenes 4 [5]; [13]): 8.1 mg/kg
ED50 (S. pneumoniae 6302; Table 9): 204 mg/kg
ED50 (S. pneumoniae 6302; challenge 1000 LD50s, 1 treatment, Table 11): > 250 mg/kg
ED50 (S. faecalis C1): > 250 mg/kg
PD50 (S. faecalis C1; challenge 10 LD50s, 1 treatment, Table 11): > 250 mg/kg
ED50 (P. aeruginosa 6720; challenge 35 LD50s, Table 11): > 250 mg/kg
ED50 (P. aeruginosa 6720; challenge 3511 LD50s, Table 10): > 250 mg/kg
ED50 (P. aeruginosa 8710 [6]; challenge 10 LD50s, Table 10, read-out: PD50): > 250 mg/kg
ED50 (P. aeruginosa 8710 [6]; challenge 562 LD50s, Table 10, read-out: PD50): > 250 mg/kg
ED50 (P. aeruginosa 8710 [6]; challenge >10^4 LD50s, Table 11, read-out: PD50): > 250 mg/kg
ED50 (P. aeruginosa 6799; challenge 48 LD50s, Table 10): 117 mg/kg
ED50 (P. aeruginosa 6799; challenge 71 LD50s, Table 11): > 250 mg/kg
ED50 (K. pneumoniae HE7; challenge 750 LD50s, Table 10): > 250 mg/kg
ED50 (K. pneumoniae HE7; challenge 1000 LD50s, Table 11): > 250 mg/kg

CC1(C)S[C@@H]2[C@H](N=CN3CCC(CCCn4ccnc4N)CC3)C(=O)N2[C@H]1C(=O)O [I, [2S-(2alpha,5alpha,6beta)]-6-[[[4-[3-(2-amino-1H-imidazol-1-yl)propyl]piperidinyl]methylene]amino]-3,3-dimethyl-7-oxo-4-thia-1-azabicyclo[3.2.0]hpetane-2-carboxylic acid hydrochloride]
MIC (E. coli 257 [1]; Escherichia coli, 257, E. coli 257, read-out: MIC): 0.031 µg/mL
MIC (E. aerogenes 83; [7]): 1 µg/mL
MIC (E. aerogenes 8; [8]): 128 µg/mL
MIC (E. cloacae 24; Enterobacter cloacae, 24, E. cloacae 24, read-out: MIC): 0.125 µg/mL
MIC (E. coli 387-1): 0.062 µg/mL
MIC (E. coli 4): 0.031 µg/mL
MIC (E. coli 503-455): 1 µg/mL
MIC (K. pneumoniae 4964): 0.25 µg/mL
MIC (K. pneumoniae A): < 0.008 µg/mL
MIC (P. aeruginosa 503-820; [9]): 128 µg/mL
MIC (P. aeruginosa 8710 [2]; Pseudomonas aeruginosa, P. aeruginosa 8710, read-out: MIC): 128 µg/mL
MIC (P. aeruginosa 8780; P. aeruginosa 8780, read-out: MIC): > 128 µg/mL
MIC (P. mirabilis 190; Proteus mirabilis, 190, P. mirabilis 190, read-out: MIC): 0.125 µg/mL
MIC (P. mirabilis 503-1136): 4 µg/mL
MIC (P. mirabilis 90; [10]): 4 µg/mL
MIC (P. vulgaris 101): 128 µg/mL
MIC (S. aureus 1059B; read-out: MIC): 64 µg/mL
MIC (S. marcescens S1; S1, S. marcescens S1, read-out: MIC): 0.062 µg/mL
MIC (S. marcescens S4; [11]): 0.25 µg/mL
MIC (S. marcescens S714): 0.125 µg/mL
MIC (S. pyogenes 4 [3]; [12]): 1 µg/mL
MIC (S. schottmuelleri): 0.031 µg/mL
ED50 (E. coli 257 [4]; Table 9): < 0.2 mg/kg
ED50 (S. marcescens SM): > 250 mg/kg
ED50 (S. aureus Smith; Table 9): 61 mg/kg
ED50 (S. pyogenes 4 [5]; Table 9): 11 mg/kg
ED50 (S. pneumoniae 6302; Table 9): 202 mg/kg
ED50 (S. faecalis C1): > 250 mg/kg
ED50 (K. pneumoniae 503-990A; Table 14 line (1)): < 2 mg/kg
ED50 (K. pneumoniae 503-990A; Table 14 line (2)): < 2 mg/kg
ED50 (K. pneumoniae R2296): > 250 mg/kg
